Legend:
[1] = test system: NHF human foreskin skin fibroblasts; experiment: SRB cell proliferation (cytotoxicity) assay, NHF; details: NHF
Description: (§1) The XLSTAT software was used to determine the IC50, TGI and LC50 values using the four-parameter logistic curve equation.

[2] = test system: MCF-7 human breast adenocarcinoma cell line; experiment: SRB cell proliferation (cytotoxicity) assay, MCF-7; details: MCF-7
Description: as §1

[3] = test system: A-375 human malignant melanoma; experiment: SRB cell proliferation (cytotoxicity) assay, A-375; details: A-375
Description: as §1

[4] = test system: HT-29 human colorectal adenocarcinoma; experiment: SRB cell proliferation (cytotoxicity) assay, HT-29; details: HT-29
Description: as §1

[5] = test system: DU-145 human prostate carcinoma cell line; experiment: SRB cell proliferation (cytotoxicity) assay, DU-145; details: DU-145
Description: as §1

[6] = test system: SK-BR-3 human breast adenocarcinoma; experiment: SRB cell proliferation (cytotoxicity) assay, SK-BR-3; details: SK-BR-3
Description: as §1

[7] = test system: HCT 116 human colorectal carcinoma; experiment: SRB cell proliferation (cytotoxicity) assay, HCT 116; details: HCT 116
Description: as §1

[8] = molecular target: T1, hGal1-induced hemagglutination of red blood cells (Homo sapiens, UniProt P09382); experiment: Hemagglutination inhibition assay, native hGal1; format: cell-based; details: native Gal1 5 μM
T1 construct: 42; made in house; host or cells: E. coli strain M-15
T1 sequence (P09382 2-135): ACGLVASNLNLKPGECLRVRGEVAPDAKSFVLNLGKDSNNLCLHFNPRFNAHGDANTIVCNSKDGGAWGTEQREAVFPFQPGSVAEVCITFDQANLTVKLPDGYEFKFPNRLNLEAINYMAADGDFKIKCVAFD
Method: Hemagglutination Inhibition Assay
Hemagglutination assay was adopted to assess the capacity of SEQ ID NO.: 4 in inhibiting the lectin cross-linking aggregation of red blood cells (RBC), as previously described. Briefly, using a 96-well microplates appropriate amounts of 5 μM hGal1 were blended with 50 μL of aptamer in an increasing concentrations manner (0-40 μM) in PBS 1× buffer (pH 7.4). Following, 50 μL of 3% purified type B+ RBC in PBS. After 2 h of room temperature incubation, the plate was photographed and the hemagglutination area was estimated by area calculator Sketchandcalc™ and the results were expressed as relative agglutination.

[9] = read-out: IC50: Concentration to inhibit 50% of cell growth

inhibitory effect on galectin-induced hemagglutination [8]	Structure (SMILES)	TGI: Concentration for total inhibition of cell growth [1] [µM]	IC50 [1, 9] [µM]	TGI: Concentration for total inhibition of cell growth [2] [µM]	TGI: Concentration for total inhibition of cell growth [3] [µM]	TGI: Concentration for total inhibition of cell growth [4] [µM]	IC50 [4, 9] [µM]	TGI: Concentration for total inhibition of cell growth [5] [µM]	IC50 [5, 9] [µM]	TGI: Concentration for total inhibition of cell growth [6] [µM]	IC50 [6, 9] [µM]	TGI: Concentration for total inhibition of cell growth [7] [µM]
	N.N.[Cl][Pt][Cl] [Cisplatin, reference compound]	16.139	4.77	35.869	7.96	64.977	< 3.91	<3.906	< 3.91	4.491	< 3.91	15.550
inhibited hemagglutinating activity	OC[C@H]1O[C@@H](O[C@H]2[C@H](O)[C@@H](O)C(O)O[C@@H]2CO)[C@H](O)[C@@H](O)[C@H]1O (stereo partly drawn) [Lactose, reference compound]											
